# Laboratory results reported in US6897209B2, “Labelled factor XIIIa substrates” (GE Healthcare Limited, priority 1997, dated 2005).
# Assays:
# [1] = test system: human plasma clots; test: Incorporation into human plasma clots (in vitro plasma clot assay); format: biochemical; settings: control vials without thrombin and calcium chloride, 60 minutes
# Protocol: (§1) Incorporation of radiolabelled substrates into fibrin was investigated by induction of an in vitro human plasma clot in the following manner. To a siliconised 5 ml glass vial was added, (a) 800 μl of Tris(hydroxymethyl)aminomethane buffered saline pH 7.5 containing calcium chloride (50 mM Tris, 150 mM sodium chloride, 4 mM calcium chloride.), (b) 40 μl of physiological salt solution containing 100 units of thrombin per ml, (c) 400 μl of human plasma containing the radiolabelled substrate at a concentration of typically 10 kBq/ml. To aid induction of clot a roughened glass rod was added to the reaction vial. Control vials were prepared similarly but with the omission of thrombin and calcium chloride.
# (§2) The proportion of total radioactivity was calculated by counting in suitable detection apparatus.
# (§3) The fraction of radioactivity retained on the filter, after subtraction of the non-specific binding determined from the control, is a measure of incorporation into the filtered clots.
# [2] = test system: clots induced in rat inferior vena cava; test: Incorporation into clots induced in a rat model (rat inferior vena cava model); format: in vivo; settings: rat IVC model; for Clot/Blood / Clot/Heart / Clot/Liver / Clot/Lung: 60 min; for % ID/g (clot uptake) / Relative conc (cpm/g of clot by dose/g animal): compound injected 5 min post-induction, clot removed after 60 min
# Protocol: The rats (Male Wistar, 250-350 g) were anaesthetised with 15% urethane. After laparotomy, the vena cava was isolated and freed of surrounding fat tissue. […] The average weight of the clots formed in this model was around 27 mg, n=32, (5-50 mg range). The so compounds were injected 5 min post-induction. After 60 min the animals were sacrificed and the clot removed, weighed and counted. Other tissues e.g. blood, lung, heart, were also dissected and counted. The uptake of tracer into the clot was determined as the relative concentration (cpm/g of clot by dose/g animal ) and clot to background tissue.
# [3] = target: T1, human plasma clots (Homo sapiens, UniProt P00488); test: Incorporation into human plasma clots (in vitro plasma clot assay); format: biochemical; settings: for % specific uptake*: % retained with thrombin − % retained no thrombin; for % retained in plasma clot assay (with thrombin): human plasma with thrombin and calcium chloride, 60 minutes, ca. 20° C.
# T1 construct: Factor XIII is transformed into its active form Factor XIIIa by thrombin in the presence of calcium ions; from tissue; host or cells: human plasma, clotted in vitro with thrombin and calcium chloride
# T1 sequence (P00488 39-732): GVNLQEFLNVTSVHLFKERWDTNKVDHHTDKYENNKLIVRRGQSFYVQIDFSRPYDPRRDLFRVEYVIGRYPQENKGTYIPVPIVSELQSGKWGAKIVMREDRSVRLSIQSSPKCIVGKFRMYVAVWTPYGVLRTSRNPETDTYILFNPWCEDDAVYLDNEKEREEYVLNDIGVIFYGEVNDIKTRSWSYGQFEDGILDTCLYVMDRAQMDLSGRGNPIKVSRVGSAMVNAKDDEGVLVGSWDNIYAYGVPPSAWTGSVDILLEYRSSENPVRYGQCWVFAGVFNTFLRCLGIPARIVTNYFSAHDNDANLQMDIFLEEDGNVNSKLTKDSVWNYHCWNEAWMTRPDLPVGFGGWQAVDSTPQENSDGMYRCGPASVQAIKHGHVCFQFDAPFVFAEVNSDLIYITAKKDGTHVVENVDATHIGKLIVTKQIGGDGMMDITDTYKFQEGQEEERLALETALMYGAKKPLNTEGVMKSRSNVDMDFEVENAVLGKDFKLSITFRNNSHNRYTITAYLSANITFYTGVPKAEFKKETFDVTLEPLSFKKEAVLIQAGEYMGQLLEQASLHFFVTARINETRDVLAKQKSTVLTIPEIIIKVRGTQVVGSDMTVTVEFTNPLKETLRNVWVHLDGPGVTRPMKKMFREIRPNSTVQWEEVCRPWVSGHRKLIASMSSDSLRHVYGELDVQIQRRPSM
# Protocol: as §1, §2, §3
# [4] = Normal rat biodistribution; format: in vivo; settings: i.v., male Wistar rats, Mean±SD n=3
# Protocol: The resolution of a clot image is dependant on the combination of rate of incorporation of the radiopharmaceutical and its blood/tissues clearance rate. For this reason the biodistribution of several compounds has been determined in rats. Male Wistar (100-150 g) rats were injected i.v. with 0.1-0.2 ml of radiolabelled tracer solution (8 MBq/ml) and dissected at different times post-injection. The % ID in each of the selected tissues was measured. Some animals were kept in metabolism cages to be able to determine the % ID excreted in urine and faeces. The dissection times used for the majority of the agents was 2, 15, 30, 60, 240 min. Data are shown as % ID, Mean±SD, (n=3).
# [5] = target: T2, Factor XIIIa (Homo sapiens, UniProt P00488); test: Factor XIIIa dependency of incorporation (dimethylcasein uptake, normal vs Factor XIII deficient plasma); format: biochemical; settings: 1 KBq/ml, 60 minutes; uptake in normal plasma minus Factor XIII deficient plasma
# T2 construct: Factor XIII is transformed into its active form Factor XIIIa by thrombin in the presence of calcium ions; from tissue; host or cells: human plasma
# T2 sequence (P00488 39-732 limits assumed): T1 sequence (P00488 39-732)
# Protocol: The assay was changed by replacing the mercaptoethanol with aprotinin at a final concentration of 2 μg/ml, and dimethylcasein (DMC) was used instead of casein.
compound,measurement,setting,value
"1-(4-(N-(5-aminopentyl)-amidosulphonyl)benzyl)-1,4,8,11-tetraazacyclotetradecane [Compound 20]",% retained in plasma clot assay (no thrombin),[1],0.6%
"3,3,6,9,9-pentamethyl-6-N-[α-N-(4-N-(5-aminopentyl)amidosulphonyl)benzoyl)amino-polethyleneglycol)-ω-carbonyl]aminomethyl-4,8-diazaundecane-2,10-dione dioxime [Compound 14]",Clot/Blood,[2],1.3
same,Clot/Heart,[2],2.8
same,Clot/Liver,[2],2.6
same,Clot/Lung,[2],1.5
same,% ID/g (clot uptake),[2],0.18 ± 0.03 % ID/g
same,Relative conc (cpm/g of clot by dose/g animal),[2],0.54 ± 0.11
same,% retained in plasma clot assay (no thrombin),[1],7.2%
same,% specific uptake*,[3],27.8%
same,% retained in plasma clot assay (with thrombin),[3],35%
"CC(=NO)C(C)(C)NCC(C)(CN)CNC(C)(C)C(C)=NO (centres unmarked) [Compound 2, 6-aminomethyl-3,3,6,9,9-pentamethyl-4,8-diazaundecane-2, 1 0-dione dioxime]",% retained in plasma clot assay (no thrombin),[1],0.3%
same,% specific uptake*,[3],1.7%
same,% retained in plasma clot assay (with thrombin),[3],2%
"CC(=NO)C(C)(C)NCC(C)(CNC(=O)c1ccc(S(=O)(=O)NCCCCCN)cc1)CNC(C)(C)C(C)=NO (centres unmarked) [Compound 3, 3,3,6,9,9-pentamethyl-6-(4-(N-(5-aminopentyl)amidosulphonyl)benzamidomethyl)-4,8-diazaundecane-2,10-dione dioxime]",Clot/Blood,[2],2
same,Clot/Heart,[2],3.4
same,Clot/Liver,[2],0.23
same,Clot/Lung,[2],2.2
same,% ID/g (clot uptake),[2],0.10 ± 0.02 % ID/g
same,Relative conc (cpm/g of clot by dose/g animal),[2],0.37 ± 0.1
same,% ID Blood,[4]; 2 min post-injection,19.29 ± 1.7 % ID
same,% ID GI Tract,[4]; 2 min post-injection,10.1 ± 1.2 % ID
same,% ID Heart,[4]; 2 min post-injection,0.51 + 0.08 % ID
same,% ID Kidney,[4]; 2 min post-injection,5.55 + 1 % ID
same,% ID Liver,[4]; 2 min post-injection,19.34 ± 0.8 % ID
same,% ID Lung,[4]; 2 min post-injection,1.43 ± 0.16 % ID
same,% ID Muscle,[4]; 2 min post-injection,23.6 ± 0.9 % ID
same,% ID Urine,[4]; 2 min post-injection,0.06 ± 0.02 % ID
same,% ID Blood,[4]; 15 min post-injection,1.45 ± 0.38 % ID
same,% ID GI Tract,[4]; 15 min post-injection,70 + 3.4 % ID
same,% ID Kidney,[4]; 15 min post-injection,2.1 ± 0.8 % ID
same,% ID Liver,[4]; 15 min post-injection,7.79 ± 1.16 % ID
same,% ID Lung,[4]; 15 min post-injection,0.23 ± 0.12 % ID
same,% ID Muscle,[4]; 15 min post-injection,4.87 ± 0.6 % ID
same,% ID Urine,[4]; 15 min post-injection,5.01 ± 2.53 % ID
same,% ID Blood,[4]; 30 min post-injection,0.59 ± 0.07 % ID
same,% ID GI Tract,[4]; 30 min post-injection,76.5 ± 5.6 % ID
same,% ID Kidney,[4]; 30 min post-injection,2.09 ± 1.87 % ID
same,% ID Liver,[4]; 30 min post-injection,1.95 ± 0.35 % ID
same,% ID Lung,[4]; 30 min post-injection,0.03 + 0.04 % ID
same,% ID Muscle,[4]; 30 min post-injection,1.53 ± 0.71 % ID
same,% ID Urine,[4]; 30 min post-injection,14.42 ± 3.78 % ID
same,% ID Blood,[4]; 60 min post-injection,0.31 ± 0.02 % ID
same,% ID GI Tract,[4]; 60 min post-injection,79.9 ± 2.9 % ID
same,% ID Kidney,[4]; 60 min post-injection,0.57 ± 0.12 % ID
same,% ID Liver,[4]; 60 min post-injection,1.54 ± 0.29 % ID
same,% ID Lung,[4]; 60 min post-injection,0.07 ± 0.02 % ID
same,% ID Muscle,[4]; 60 min post-injection,1.14 ± 0.48 % ID
same,% ID Urine,[4]; 60 min post-injection,14.66 ± 2.83 % ID
same,% ID Blood,[4]; 240 min post-injection,0.11 ± 0.07 % ID
same,% ID GI Tract,[4]; 240 min post-injection,83.5 ± 2.2 % ID
same,% ID Kidney,[4]; 240 min post-injection,0.45 ± 0.04 % ID
same,% ID Liver,[4]; 240 min post-injection,1.35 ± 0.06 % ID
same,% ID Lung,[4]; 240 min post-injection,0.14 + 0.24 % ID
same,% ID Muscle,[4]; 240 min post-injection,0.8 ± 0.17 % ID
same,% ID Urine,[4]; 240 min post-injection,12.31 ± 1.93 % ID
same,% retained in plasma clot assay (no thrombin),[1],3.0%
same,% specific uptake*,[3],19%
same,% retained in plasma clot assay (with thrombin),[3],22%
same,% specific DMC casein uptake,[5],40%
"CC(=NO)C(C)(C)NCC(C)(CNC(=O)[C@@H](Cc1ccccc1)NC(=O)CCCCCN)CNC(C)(C)C(C)=NO (stereo partly drawn) [Compound 5, 3,3,6,9,9-pentamethyl-6-N-[N-(6-aminohexanoyl)-D-phenylalanyl]aminomethyl-4,8-diazaundecane-2,10-dione dioxime]",% retained in plasma clot assay (no thrombin),[1],1.9%
same,% specific uptake*,[3],4.1%
same,% retained in plasma clot assay (with thrombin),[3],6%
same,% specific DMC casein uptake,[5],10%
"CC(=NO)C(C)(C)NCC(C)(CNC(=O)c1ccc(NC(=O)CCCCCN)cc1)CNC(C)(C)C(C)=NO (centres unmarked) [Compound 6, 3,3,6,9,9-pentamethyl-6-N-[4-N-(6aminohexanoyl)aminobenzoyl]aminomethyl-4,8-diazaundecane-2.10-dione dioxime]",% retained in plasma clot assay (no thrombin),[1],0.5%
same,% specific uptake*,[3],1.5%
same,% retained in plasma clot assay (with thrombin),[3],2%
same,% specific DMC casein uptake,[5],13%
"CC(=NO)C(C)(C)NCC(C)(CNC(=O)c1ccc(S(=O)(=O)NCCSCCN)cc1)CNC(C)(C)C(C)=NO (centres unmarked) [Compound 9, 3,3,6,9,9-pentamethyl-6-(4-(N-[(S-aminoethyl)thioethyl]amidosulphonyl)benzamidomethyl)4,8-diazaundecane-2,10-dione dioxime]",% retained in plasma clot assay (no thrombin),[1],4.5%
same,% specific uptake*,[3],15.5%
same,% retained in plasma clot assay (with thrombin),[3],20%
same,% specific DMC casein uptake,[5],29%
"CC(=NO)C(C)(C)NCC(C)(CNC(=O)[C@@H](CO)NC(=O)[C@@H](CO)NC(=O)[C@@H](CO)NC(=O)c1ccc(S(=O)(=O)NCCCCCN)cc1)CNC(C)(C)C(C)=NO (stereo partly drawn) [Compound 10, 3,3,6,9,9-pentamethyl-6-N-[N-(4-N-(5aminopentyl)amidosulphonyl)benzoyl-D-serine-D-serine-D-serine]aminomethyl-4,8-diazaundecane-2,10-dione dioxime]",% retained in plasma clot assay (no thrombin),[1],0.3%
same,% specific uptake*,[3],4.7%
same,% retained in plasma clot assay (with thrombin),[3],5%
same,% specific DMC casein uptake,[5],6%
"CC(=NO)C(C)(C)NCC(C)(CNC(=O)N1CCN(CNC(=O)c2ccc(S(=O)(=O)NCCCCCN)cc2)CC1)CNC(C)(C)C(C)=NO (centres unmarked) [Compound 11, 3,3,6,9,9-pentamethyl-6-N-[4-N-{4-(N-(5-aminopentyl)amidosulphonyl)benzoyl}aminomethylpiperazinylcarbonyl]aminomethyl-4,8-diazaundecane-2,10-dione dioxime]",% retained in plasma clot assay (no thrombin),[1],3.2%
same,% specific uptake*,[3],12.8%
same,% retained in plasma clot assay (with thrombin),[3],16%
same,% specific DMC casein uptake,[5],24%
"CC(=O)SCC(=O)NCC(=O)NCC(=O)NCC(=O)NCCCNC(=O)c1ccc(S(=O)(=O)NCCCCCN)cc1 [Compound 23, N-[S-acetyl-mercaptoacatylglycylglycylglycyl)-N′-(4-N-(5-aminopentyl)amidosulphonyl)benzoyl propane-1,3-diamine]",% retained in plasma clot assay (no thrombin),[1],0.8%
same,% specific uptake*,[3],14.2%
same,% retained in plasma clot assay (with thrombin),[3],16%
same,% specific DMC casein uptake,[5],24.5%
